The target in assay [1] is T1, M1 (rise in blood pressure by McN-A-343) (Rattus norvegicus, UniProt P08482).
T1 construct: from tissue
T1 sequence (P08482 1-460): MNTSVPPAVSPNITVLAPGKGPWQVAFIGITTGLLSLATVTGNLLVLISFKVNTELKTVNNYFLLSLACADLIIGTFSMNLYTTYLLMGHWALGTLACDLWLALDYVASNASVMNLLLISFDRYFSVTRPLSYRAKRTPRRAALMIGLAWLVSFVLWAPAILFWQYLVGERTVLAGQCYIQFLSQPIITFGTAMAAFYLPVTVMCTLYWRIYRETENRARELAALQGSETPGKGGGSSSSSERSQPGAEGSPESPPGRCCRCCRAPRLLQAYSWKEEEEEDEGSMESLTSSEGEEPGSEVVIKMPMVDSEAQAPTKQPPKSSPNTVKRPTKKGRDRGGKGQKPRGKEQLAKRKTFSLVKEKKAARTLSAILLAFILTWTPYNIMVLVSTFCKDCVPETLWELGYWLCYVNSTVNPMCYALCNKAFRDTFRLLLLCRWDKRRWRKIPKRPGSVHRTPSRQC
In words: M1/M2 selectivity in the rat: inhibition of McN-A-343 blood pressure increase (M1). It counts as in vivo, male THOM rats. The conditions noted are these: iv, 5 min, i.v., 50% reduction in blood pressure rise by 0.3 mg/kg McN-A-343, read-out: M1 activity (rat) ED50.

In another assay the test system is salivation. The experiment in a line: Salivation-inhibiting effect on the rat (pilocarpine). In kind it is in vivo, male THOM rats. The conditions noted are these: for ED50: Rattus norvegicus, iv, pilocarpine 2 mg/kg s.c., 50% reduction of saliva volume, read-out: Salivation inhibition (rat) ED50. How it is done: The secretion of saliva was triggered by subcutaneous administration of 2 mg/kg of pilocarpine. The saliva was soaked up with blotting paper and the area occupied by the saliva was determined by planimetry every 5 minutes. The dosage of substance which reduced the volume of saliva by 50% was determined graphically.

In assay [2] the target is T2, muscarinic receptors, heart atrium (Rattus norvegicus, UniProt P10980).
T2 construct: from tissue; host or cells: heart (atrium, ventricle) of female rats, labelled in vivo
T2 sequence (P10980 1-466): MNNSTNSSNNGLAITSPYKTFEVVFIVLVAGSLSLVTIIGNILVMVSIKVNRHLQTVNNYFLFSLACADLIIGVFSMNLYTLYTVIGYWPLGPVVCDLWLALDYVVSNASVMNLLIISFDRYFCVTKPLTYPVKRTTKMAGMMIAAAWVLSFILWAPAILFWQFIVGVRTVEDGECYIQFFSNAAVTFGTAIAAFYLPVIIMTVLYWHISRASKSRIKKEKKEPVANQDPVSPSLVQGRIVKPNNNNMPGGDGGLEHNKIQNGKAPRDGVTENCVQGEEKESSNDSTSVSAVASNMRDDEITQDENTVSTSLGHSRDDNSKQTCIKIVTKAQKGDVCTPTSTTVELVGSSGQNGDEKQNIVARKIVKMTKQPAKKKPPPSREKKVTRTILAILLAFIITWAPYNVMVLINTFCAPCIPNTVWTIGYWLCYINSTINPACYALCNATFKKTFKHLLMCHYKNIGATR
The experiment in a line: Receptor bonding test in vivo, heart atrium (3H-NMS). Also noted: species or system female rats. The conditions noted are these: for potency in the heart (in words): Table V, atrium/ventricle, vs comparison substances; for ED50: iv, 0.5 h, i.v., 113 ng/kg 3H-NMS, read-out: ID50 Heart Atrium. How it is done: (§1) For these experiments, female rats with a body weight of about 200 g were used. Before the start of the test the animals were anaesthetised with a dosage of 1.25 g/kg of urethane. The animals were each given the prescribed dosage of test substance by intravenous injection. After 15 minutes, 113 ng/kg of ^3 H-N-methylscopolamine (^3 H-NMS) were administered by the same route. After another 15 minutes the animals were killed and the heart, bronchi and lachrymal glands were removed. These organs were dissolved in Soluene R and the radioactivity was determined. The measurements were assumed to be total bonding. […] ID50 values were determined for the individual organs using these tests.

The target in assay [3] is T3, muscarinic receptors, heart (Rattus norvegicus, UniProt P10980).
T3 construct: After removal of the heart and submandibular gland; from tissue; host or cells: whole heart of male Sprague-Dawley rats, homogenate
T3 sequence (P10980 1-466): T2 sequence (P10980 1-466)
In words: Receptor bonding test in vitro, heart (displacement of 3H-N-methylscopolamine). It counts as binding, Sprague-Dawley rats. The note with it: for pIC50: 0.3 nmolar 3H-NMS, 30° C., 45 min, heart.

Assay [4] addresses T4, muscarinic receptors, heart ventricle (Rattus norvegicus, UniProt P10980).
T4 construct: the heart, bronchi and lachrymal glands were removed; from tissue; host or cells: heart (atrium, ventricle) of female rats, labelled in vivo
T4 sequence (P10980 1-466): T2 sequence (P10980 1-466)
In words: Receptor bonding test in vivo, heart ventricle (3H-NMS). The note with it: iv, 0.5 h, in vivo binding, i.v., 113 ng/kg 3H-NMS, read-out: ID50 Heart Ventricle. Also noted: species or system female rats. How it is done:
as §1

Assay [5] deals with T5, muscarinic receptors, ileum (Cavia porcellus, UniProt H0W1Z3).
T5 construct: The ileum was removed and incubated in Krebs-Henseleit solution; from tissue; host or cells: isolated ileum of guinea pig
The experiment in a line: Dissociation constants (KB) on ileum, methacholine antagonism. The note with it: guinea pig ileum, 30 min contact, read-out: KB Ileum (dissociation constant). The protocol:
Dissociation constants (KB values) were determined in vitro on the guinea pig ileum and spontaneously beating atrium. The ileum was removed and incubated in Krebs-Henseleit solution in an organ bath. Contractions were produced by means of increasing concentrations of methacholine (M) so that a full concentration-activity curve could be plotted.

The next assay concerns the target T6, M2 (vagal bradycardia) (Rattus norvegicus, UniProt P10980).
T6 construct: The bradycardia produced by vagus stimulation; from tissue; host or cells: whole animal (male THOM rats), heart
T6 sequence (P10980 1-466): T2 sequence (P10980 1-466)
In words: M1/M2 selectivity in the rat: inhibition of vagally stimulated bradycardia (M2). In kind it is in vivo, male THOM rats. The conditions noted are these: iv, 5 min, i.v., 50% reduction in vagal bradycardia, read-out: M2 activity (rat) ED50. The protocol: The method used was described by Hammer and Giachetti (Life Sciences 31, 2991-2998 (1982)). 5 minutes after intravenous injection of increasing doses of the substance, either the right vagus was electrically stimulated (frequency: 25 Hz; pulse width: 2 ms; duration of stimulus: 30 s; number of volts: supramaximal) or 0.3 mg/kg of McN-A-343 was injected intravenously into male THOM rats. The bradycardia produced by vagus stimulation and the increase in blood pressure produced by McN-A-343 were measured.

For assay [6], the system named is muscarinic receptors of the atrium. The experiment in a line: Dissociation constants (KB) on spontaneously beating right atrium, methacholine antagonism. The note with it: Table IV. Also noted: species or system guinea pig. The protocol: Dissociation constants (KB values) were determined in vitro on the guinea pig ileum and spontaneously beating atrium. The ileum was removed and incubated in Krebs-Henseleit solution in an organ bath. Contractions were produced by means of increasing concentrations of methacholine (M) so that a full concentration-activity curve could be plotted. Then M was washed out, the test substance was added and kept in contact for 30 minutes and again a concentration-activity curve was plotted with M. The dissociation constant was calculated according to Arunlakshana and Schild (Brit. J. Pharmacol. 14, 48, 1959) from the dosage ratio (DR), i.e. the extent of displacement of the concentration-activity curve.
In the isolated, spontaneously beating right atrium M reduced the heart rate as a function of the concentration. This effect was stopped by the addition of an antimuscarinic. Dissociation constants for the muscarinic receptors of the atrium were obtained in the same way as described above. A comparison of the dissociation constants measured in the two different tissues made it possible to identify cardioselective substances.

pIC50: −log10 of the molar value. Bounds are passed on as bounds.

T5 sequence (H0W1Z3 1-590): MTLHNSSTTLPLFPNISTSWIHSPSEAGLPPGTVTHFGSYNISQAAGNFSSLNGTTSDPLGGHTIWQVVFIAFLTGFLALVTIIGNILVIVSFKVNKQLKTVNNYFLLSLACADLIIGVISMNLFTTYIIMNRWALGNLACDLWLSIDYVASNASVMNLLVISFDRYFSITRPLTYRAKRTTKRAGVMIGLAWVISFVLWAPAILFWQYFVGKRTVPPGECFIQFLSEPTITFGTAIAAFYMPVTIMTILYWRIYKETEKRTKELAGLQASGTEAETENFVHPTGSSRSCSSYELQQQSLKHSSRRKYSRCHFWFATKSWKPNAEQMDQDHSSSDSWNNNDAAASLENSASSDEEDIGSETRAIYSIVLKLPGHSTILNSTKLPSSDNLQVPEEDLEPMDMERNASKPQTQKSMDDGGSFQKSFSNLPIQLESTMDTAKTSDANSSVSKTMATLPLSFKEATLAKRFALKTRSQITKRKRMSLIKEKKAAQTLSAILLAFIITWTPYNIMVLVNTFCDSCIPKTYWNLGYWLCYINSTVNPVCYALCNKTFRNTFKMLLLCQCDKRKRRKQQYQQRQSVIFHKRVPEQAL

Consider `CCCN(CCC)CC1CCCCN1CCNC(=O)N1c2ccccc2C(=O)Nc2cccnc21` (stereo not drawn) [Substance A, 5,11-dihydro-11-[[[2-[2-[(dipropylamino)methyl]-piperidin-1-yl]ethyl]amino]carbonyl]-6H-pyrido[2,3-b][1,4]benzodiazepin-6-one], for which the ED50 in assay [1] was 0.562 mg/kg; in the assay with salivation it was 0.458 mg/kg; in assay [2] (in vivo binding, rat) it was 0.2 mg/kg; in assay [4], 0.15 mg/kg; on M2 (vagal bradycardia) it was 0.019 mg/kg. Further, in assay [2], the “potency in the heart (in words)” value is “decisive improvement in potency compared with substances Y and Y in the heart”. Besides, the negative-log IC50 (pIC50) in assay [3] is 7.70. The Kb in assay [5] amounted to 25.7 nM. For the same molecule, the “efficacy compared with X and Y (in words)” value in assay [6] is “significantly more effective than X and Y”.
With `CCN(CC)CC1CCCCN1CCNC(=O)N1c2ccccc2NC(=O)c2csc(C)c21` (stereo not drawn) [Substance B, 4-[[[2-[2-[(diethylamino)methyl]-piperidin-1-yl]ethyl]amino]carbonyl]-4,9-dihydro-3-methyl-10H-thieno[3,4-b][1,5]benzodiazepin-10-one], the ED50 was 0.033 mg/kg in assay [1]; 0.078 mg/kg in the assay with salivation; 0.025 mg/kg in assay [2] (in vivo binding, rat); 0.006 mg/kg in assay [4]; 0.008 mg/kg on M2 (vagal bradycardia). Besides, the “Ratio of salivation inhibition to M2 activity” value in the assay with salivation (rat, i.v. ED50 values) turned out to be 9.75. The “potency in the heart (in words)” value in assay [2] is “decisive improvement in potency compared with substances Y and Y in the heart”. For the same molecule, the “Ratio of ID50 lachrymal gland to ID50 atrium” value in assay [2] (in vivo binding, rat, 30 min) is listed as over 40. Also, in assay [3], the “Selectivity factor: Ratio IC50 submandibular gland to IC50 heart” value was determined as 5. For the same molecule, in assay [3], the negative logarithm of the IC50 (pIC50) is 8.52. For the same molecule, in assay [5], the antagonist equilibrium constant (Kb) was 3.63 nM. The “efficacy compared with X and Y (in words)” value in assay [6] is “significantly more effective than X and Y”.
Take `CCN(CC)CC1CCCCN1CCNC(=O)N1c2cc(Cl)ccc2C(=O)Nc2cccnc21` (stereo not drawn) [Substance C, 9-chloro-11-[[[2-[2-[(diethylamino)methyl]-piperidin-1-yl]ethyl]amino]carbonyl]-5,11-dihydro-6H-pyrido[2,3-b][1,4]benzodiazepin-6-one]: the ED50 in assay [1] is 0.36 mg/kg; with salivation it was 1.4 mg/kg; in assay [2] (in vivo binding, rat) it was 0.2 mg/kg; in assay [4], 0.09 mg/kg; at M2 (vagal bradycardia), 0.058 mg/kg. The “potency in the heart (in words)” value in assay [2] was “decisive improvement in potency compared with substances Y and Y in the heart”. The molecule also had a pIC50 in assay [3] of 7.52. For the same molecule, the Kb in assay [5] turned out to be 83.2 nM. Besides, the “efficacy compared with X and Y (in words)” value in assay [6] was “significantly more effective than X and Y”.

The record behind these values is patent US4873236A, “Condensed diazepinones, processes for preparing them and pharmaceutical compositions containing these compounds” (Dr. Karl Thomae GmbH, priority 1986, dated 1989).
